From paper PMC9098178, “SAR of Novel 3-Arylisoquinolinones: meta-Substitution on the Aryl Ring Dramatically Enhances Antiproliferative Activity through Binding to Microtubules” (Journal of Medicinal Chemistry, 2022)
Like-named read-outs stand apart in the source and are kept apart here.

Columns and labels:
A549 = assay: SRB antiproliferative assay, A549; type: cell-based, human
Experimental: (§1) In light of this substantial change in activity between the meta and para compounds, a more comprehensive analysis of the antiproliferative activity was performed for the meta-/para-3-arylisoquinolinone pairs 2 and 3, 4, and 5, as well as 6. A panel of breast (MDA-MB-231), liver (HepG2, SNU423), lung (A549), and colon (HCT116) cancer cell lines were treated with the five 3-arylisoquinolinone analogs for 96 h followed by the SRB assay. The dose–response curves (including those for MCF-7) are presented in Figure S22, and their relevant IC50 values are listed in Table 1. […] The differential activity between meta- and para-3-arylisoquinolinones was reproduced in the National Cancer Institute (NCI) one-dose screen using a panel of 59 cancer cell lines (Figure S23).
(§2) All cell lines used in the study were human-derived and purchased from ATCC (Manassas, USA). Breast adenocarcinoma MCF-7 and MDA-MB-231 cell lines were cultured in DMEM. Hepatocellular carcinoma HepG2 and SNU423 cell lines were grown in MEME combined with 1% (v/v) nonessential amino acids and RPMI supplemented with 2 mM glutamine, respectively. Lung adenocarcinoma A549 and colorectal carcinoma HCT116 cells were grown in RPMI (+2 mM glutamine). All previous media were further supplemented with 10% heat-inactivated fetal bovine serum. The immortalized, normal liver THLE-3 cells were grown in BEGM (Lonza, Cat# CC-3170) onto precoated vessels according to ATCC’s instructions. Human umbilical vein endothelial cells (HUVECs) were cultured in EGM-2 (Lonza, Cat# CC-3162). All of the cells were maintained at 37 °C and 5% CO2 in a humidified incubator.
(§3) Screening of the antiproliferative activity of 3-arylisoquinolinones was performed using the SRB assay as previously described.[56] Exponentially growing HepG2, SNU423, MDA-MB-231, MCF-7, A549, HCT116, THLE-3, and HUVECs were seeded in 96-well plates at densities of 3000, 2000, 1500, 2500, 1000, 1000, 4000, and 4000 cells/well, respectively. These densities were experimentally selected so that the DMSO-treated cells (control) were approximately 80–90% confluent at the assay’s endpoint, and their optical density (OD) values fell within the assay’s linear range. After overnight incubation, the cells were treated with a range of concentrations of the respective compounds for 96 h, 24 h followed by 72 h compound-free incubation or 24 h (for HUVECs only). After treatment, cell monolayers were fixed with 10% (w/v) trichloroacetic acid for 1 h at 4 °C, washed, and dried. Then, the cells were exposed to 0.4% (w/v) SRB dye (prepared in 1% (v/v) acetic acid; Botium, Cat# 80100) for 15 min followed by several 1% acetic acid washing and then drying. Finally, the cellular protein-bound SRB was thoroughly dissolved in 10 mM Tris base, and the OD values were read at 510 nm using a plate reader (μQuant Microplate Spectrophotometer, Biotek, U.K.) coupled with Gen5 software (BioTek, U.K.). Compound-induced changes in cell growth were inferred from changes in OD values. Cell growth was calculated using the following formula: cell growth (%) = (ODtest/ODcontrol) × 100.

HepG2 = assay: SRB antiproliferative assay, HepG2; type: cell-based, human
Experimental: as §1, §2, §3

HepG2 cells = assay: Clonogenic assay; type: cell-based, human; settings: 14 days; for colony formation: 0.5 or 1 μM
Experimental: HepG2 cells were treated with varying concentrations of 2–6 added once and kept for 14 days before counting colonies and calculating surviving fraction (Figure 2).
The ability of potential anticancer agents to prevent unlimited cell division and induce reproductive cell death was assessed using clonogenic assay as previously described.[57] In brief, HepG2 cells were seeded into six-well plates at a density of 1000 single cells/well and incubated for 10–12 h to adhere. The cells were then treated with DMSO (control) or a range of concentrations of 2–6 for 14 days. Afterward, the produced colonies were washed with phosphate-buffered saline (PBS), fixed with 70% ethanol for 20 min, and stained with 0.5% (w/v) methylene blue (prepared in 70% methanol). Following washing with water and drying, colonies (≥50 cells) were manually counted. The colony-forming efficiency (CFE) of cells was calculated by dividing the number of colonies formed by the number of cells seeded for each condition. The surviving fraction was determined by dividing the CFE of the treated cells by CFE of the control cells. A survival curve was generated by plotting the log of drug concentrations versus surviving fraction.

MDA-MB-231 = assay: SRB antiproliferative assay, MDA-MB-231; type: cell-based, human
Experimental: as §1, §2, §3

HCT116 = assay: SRB antiproliferative assay, HCT116; type: cell-based, human
Experimental: as §1, §2, §3

MCF-7 = assay: SRB antiproliferative assay, MCF-7; type: cell-based, human
Experimental: Initially, the human breast cancer cell line MCF-7 was used in a prescreen analysis of the anticancer activity of 3-arylisoquinolinones. The cells were treated with serial concentrations of compounds 2–8 for 96 h prior to the assessment of proliferation using the sulforhodamine B (SRB) assay. For each compound, the concentration required to inhibit cell growth by 50% compared to that of the untreated control cells (IC50) was determined (Table 1).
as §2, §3

SNU423 = assay: SRB antiproliferative assay, SNU423; type: cell-based, human
Experimental: as §1, §2
as §3, with “After overnight incubation, the cells were treated with a range of concentrations of the respective compounds for 96 h, 24 h followed by 72 h compound-free incubation or 24 h (for HUVECs only).” left out

THLE-3 = assay: SRB antiproliferative assay, normal liver cell line THLE-3; type: cell-based, human; settings: 24 h +drug/72 h –drug treatment, read-out: mean IC50 ± SEM, THLE-3
From the text: In the preceding experiments, the cells were continuously exposed to the compounds prior to scoring for the antiproliferative/cytotoxic effects. […] The meta compounds were also examined for the presence of differential antiproliferative activity against cancer cells over the normal liver cell line THLE-3. […] Moreover, the sensitivity of the six cancer cell lines toward compounds 2, 4, and 6 was markedly greater than that of THLE-3 cells.
All cell lines used in the study were human-derived and purchased from ATCC (Manassas, USA). Breast adenocarcinoma MCF-7 and MDA-MB-231 cell lines were cultured in DMEM. Hepatocellular carcinoma HepG2 and SNU423 cell lines were grown in MEME combined with 1% (v/v) nonessential amino acids and RPMI supplemented with 2 mM glutamine, respectively. Lung adenocarcinoma A549 and colorectal carcinoma HCT116 cells were grown in RPMI (+2 mM glutamine). […]
Screening of the antiproliferative activity of 3-arylisoquinolinones was performed using the SRB assay as previously described.[56] […] Finally, the cellular protein-bound SRB was thoroughly dissolved in 10 mM Tris base, and the OD values were read at 510 nm using a plate reader (μQuant Microplate Spectrophotometer, Biotek, U.K.) coupled with Gen5 software (BioTek, U.K.). […] Cell growth was calculated using the following formula: cell growth (%) = (ODtest/ODcontrol) × 100.

[1] = parameters: method as in PMID 21127197; settings: after compound washout; cited from earlier work
[2] = system: panel of 59 cancer cell lines; assay: NCI one-dose screen; type: cell-based; settings: 10 µM, 48 h, SRB
Experimental: as §1
Figure S23. NCI One-Dose Mean graphs for 3-arylisoquinolinones 4, 5 […]
In NCI one-dose screen, the 59 cell lines (classified into 9 groups) were exposed to 4, 5 and 7 at a single dose of 10 µM for 48 h followed by SRB assay. The one-dose data were reported as a mean graph of the growth percentage of treated cells, as relative to the cell number of both the no-drug control and the zero time (before adding the test agent). Values between 0 and 100 indicate growth inhibition, whereas values less than 0 indicate lethality. For instance, a value of 40 means 60% growth inhibition; 0, no growth throughout the experiment; -40, 40% lethality; and - 100, all cells are dead.1
A) One-dose mean graph for 3-arylisoquinolinone 4 (NSC number 795055)

purified bovine tubulin = assay: Cell-free tubulin polymerization assay; type: biochemical; settings: 10 μM, compared to DMSO control
From the text: Experimentally, the direct interaction of 4 with tubulin was investigated in a cell-free system using a tubulin polymerization assay. […] In control samples, α- and β-tubulin subunits were able to heterodimerize and assemble into microtubules in a time-dependent manner as indicated by increasing absorbance values over time. […] This indicates the incidence of fast polymerization associated with the formation of a denser microtubule mass. […] It is worth mentioning that microtubule dynamics can be potently altered by microtubule-stabilizing or -destabilizing compounds at doses 10- to 100-fold lower than those required for increasing or decreasing the microtubule polymer mass.[31]
The cell-free tubulin polymerization experiment was performed using the Tubulin Polymerization Assay Kit according to the manufacturer’s instructions (Millipore, Cat# 17-10194). The light absorbed by microtubules, which were formed upon tubulin polymerization, is directly proportional to the polymer mass. […] Immediately, the plate was placed in a 37 °C-prewarmed plate reader (BMG LABTECH FLUOstar Omega, Germany) and the absorbance was measured at 1 min intervals for 60 min at a wavelength of 350 nm. The delta absorbance (ΔA) was calculated by subtracting the absorbance values of zero time from those of the subsequent time points and then plotted versus time.

[3] = Homo sapiens, MCF7, 96 h treatment, mean ± SEM, read-out: IC50 MCF-7 (prescreen)
[4] = 24 h +drug/72 h –drug treatment, read-out: mean IC50 ± SEM, A549
[5] = 96 h treatment, mean ± SEM, read-out: IC50 A549
[6] = 24 h +drug/72 h –drug treatment, read-out: mean IC50 ± SEM, HepG2
[7] = 96 h treatment, mean ± SEM, read-out: IC50 HepG2
[8] = 24 h +drug/72 h –drug treatment, read-out: mean IC50 ± SEM, MDA-MB-231
[9] = 96 h treatment, mean ± SEM, read-out: IC50 MDA-MB-231
[10] = 24 h +drug/72 h –drug treatment, read-out: mean IC50 ± SEM, HCT116
[11] = 96 h treatment, mean ± SEM, read-out: IC50 HCT116
[12] = 24 h +drug/72 h –drug treatment, read-out: mean IC50 ± SEM, MCF-7
[13] = 96 h treatment, mean ± SEM, read-out: IC50 MCF-7 (prescreen)
[14] = 24 h +drug/72 h –drug treatment, read-out: mean IC50 ± SEM, SNU423
[15] = 96 h treatment, mean ± SEM, read-out: IC50 SNU423

Compound: COc1ccc(-c2cc3cc(F)ccc3c(=O)[nH]2)cc1 [compound 3, 6-Fluoro-3-(4-methoxyphenyl)isoquinolin-1(2H)-one]
- IC50 (A549; Homo sapiens, A549, 96 h treatment, mean ± SEM, read-out: IC50 A549): > 50 µM
- IC50 (HepG2; Homo sapiens, HepG2, 96 h treatment, mean ± SEM, read-out: IC50 HepG2): > 50 µM
- surviving fraction (HepG2 cells; concentrations as high as 20 μM): 0.5
- IC50 (MDA-MB-231; Homo sapiens, MDA-MB-231, 96 h treatment, mean ± SEM, read-out: IC50 MDA-MB-231): > 50 µM
- IC50 (HCT116; Homo sapiens, HCT-116, 96 h treatment, mean ± SEM, read-out: IC50 HCT116): > 50 µM
- IC50 (MCF-7; [3]): > 50 µM
- IC50 (SNU423; Homo sapiens, SNU-423, 96 h treatment, mean ± SEM, read-out: IC50 SNU423): > 50 µM

Compound: COc1cccc(-c2cc3ccc(F)cc3c(=O)[nH]2)c1 [compound 6]
- IC50 (A549; [4]): 0.47 ± 0.03 µM
- IC50 (A549; [5]): 0.38 ± 0.02 µM
- IC50 (HepG2; [6]): 1.4 ± 0.06 µM
- IC50 (HepG2; [7]): 3.03 ± 0.61 µM
- colony formation (HepG2 cells): No colonies were apparent
- IC50 (THLE-3): > 25 µM
- IC50 (MDA-MB-231; [8]): 0.22 ± 0.02 µM
- IC50 (MDA-MB-231; [9]): 0.21 ± 0.05 µM
- IC50 (HCT116; [10]): 0.21 ± 0.01 µM
- IC50 (HCT116; [11]): 0.19 ± 0.01 µM
- IC50 (MCF-7; [12]): 1.6 ± 0.4 µM
- IC50 (MCF-7; [13]): 0.68 ± 0.13 µM
- IC50 (SNU423; [14]): 0.68 ± 0.09 µM
- IC50 (SNU423; [15]): 0.6 ± 0.06 µM

Compound: CN[C@H]1CCc2cc(OC)c(OC)c(OC)c2-c2ccc(OC)c(=O)cc21 [colcemid]
- reversibility of mitotic blockade [1]: highly reversible

Compound: COc1cc2c(c(OC)c1OC)-c1ccc(OC)c(=O)cc1[C@@H](NC(C)=O)CC2 [colchicine]
- reversibility of mitotic blockade [1]: irreversible

Compound: COC(=O)Nc1nc2cc(C(=O)c3cccs3)ccc2[nH]1 [nocodazole]
- reversibility of mitotic blockade [1]: highly reversible

Compound: CC[C@]1(O)C[C@H]2CN(CCc3c([nH]c4ccccc34)[C@@](C(=O)OC)(c3cc4c(cc3OC)N(C=O)[C@H]3[C@@](O)(C(=O)OC)[C@H](OC(C)=O)[C@]5(CC)C=CCN6CC[C@]43[C@@H]65)C2)C1 [vincristine]
- reversibility of mitotic blockade [1]: irreversible

Compound: COc1cccc(-c2cc3cc(F)ccc3c(=O)[nH]2)c1 [compound 2, 6-Fluoro-3-(3-methoxyphenyl)isoquinolin-1(2H)-one]
- IC50 (A549; [4]): 0.83 ± 0.17 µM
- IC50 (A549; [5]): 0.37 ± 0.01 µM
- IC50 (HepG2; [6]): 2.33 ± 0.22 µM
- IC50 (HepG2; [7]): 3.12 ± 0.34 µM
- colony formation (HepG2 cells): No colonies were apparent
- IC50 (THLE-3): > 25 µM
- IC50 (MDA-MB-231; [8]): 0.19 ± 0.04 µM
- IC50 (MDA-MB-231; [9]): 0.17 ± 0.01 µM
- IC50 (HCT116; [10]): 0.2 ± 0.01 µM
- IC50 (HCT116; [11]): 0.22 ± 0.02 µM
- IC50 (MCF-7; [12]): 1.43 ± 0.3 µM
- IC50 (MCF-7; [13]): 0.75 ± 0.13 µM
- IC50 (SNU423; [14]): 0.58 ± 0.04 µM
- IC50 (SNU423; [15]): 0.41 ± 0.03 µM

Compound: O=c1[nH]c(-c2ccc(F)cc2)cc2ccc(F)cc12 [compound 8]
- melting point: 294 to 296 °C
- IC50 (MCF-7; [3]): > 50 µM

Compound: 7-Fluoro-3-(4-methoxyphenyl)isoquinolin-1(2H)-one [compound 7]
- IC50 (MCF-7; [13]): > 50 µM
- inhibition of growth in NCI one-dose screen [2]: less active

Compound: CC(=O)O[C@H]1C(=O)[C@@]2(C)[C@H]([C@H](OC(=O)c3ccccc3)[C@]3(O)C[C@H](OC(=O)[C@H](O)[C@@H](NC(=O)c4ccccc4)c4ccccc4)C(C)=C1C3(C)C)[C@]1(OC(C)=O)CO[C@@H]1C[C@@H]2O [paclitaxel, reference compound]
- effect on tubulin polymerization (polymerizing control) (purified bovine tubulin): higher absorbance values briefly after the onset of the polymerization process
